Data as given in the NIST ThermoML archive (doi:10.1021/je800783a).

Assay: xn = mol fraction of the nth substance listed
Conditions: 101 kPa, Liquid, Vibrating tube method

CCCn1cc[n+](C)c1.N[C@@H](CCC(=O)O)C(=O)[O-] + O
Conditions	mass density [kg/m3]
283.15 K, x1 = 0.039	1090.4
283.15 K, x1 = 0.0455	1100.76
283.15 K, x1 = 0.0497	1106.9
283.15 K, x1 = 0.0683	1129.12
283.15 K, x1 = 0.0783	1139.04
283.15 K, x1 = 0.0894	1147.7
283.15 K, x1 = 0.0975	1153.37
283.15 K, x1 = 0.1235	1169.78
283.15 K, x1 = 0.1451	1178.22
283.15 K, x1 = 0.1925	1191.85
283.15 K, x1 = 0.239	1201.76
283.15 K, x1 = 0.2888	1208.1
283.15 K, x1 = 0.3294	1211.85
283.15 K, x1 = 0.3767	1215
283.15 K, x1 = 0.4265	1218.6
283.15 K, x1 = 0.4713	1220.69
283.15 K, x1 = 0.5112	1221.72
283.15 K, x1 = 0.5427	1223.07
288.15 K, x1 = 0.039	1088.42
288.15 K, x1 = 0.0455	1098.39
288.15 K, x1 = 0.0497	1104.45
288.15 K, x1 = 0.0683	1126.36
288.15 K, x1 = 0.0783	1136.21
288.15 K, x1 = 0.0894	1144.79
288.15 K, x1 = 0.0975	1150.37
288.15 K, x1 = 0.1235	1166.6
288.15 K, x1 = 0.1451	1175.07
288.15 K, x1 = 0.1925	1188.67
288.15 K, x1 = 0.239	1198.15
288.15 K, x1 = 0.2888	1204.86
288.15 K, x1 = 0.3294	1208.49
288.15 K, x1 = 0.3767	1211.68
288.15 K, x1 = 0.4265	1214.72
288.15 K, x1 = 0.4713	1217.33
288.15 K, x1 = 0.5112	1218.47
288.15 K, x1 = 0.5427	1220.26
293.15 K, x1 = 0.039	1086.11
293.15 K, x1 = 0.0455	1095.92
293.15 K, x1 = 0.0497	1101.92
293.15 K, x1 = 0.0683	1123.56
293.15 K, x1 = 0.0783	1133.31
293.15 K, x1 = 0.0894	1141.8
293.15 K, x1 = 0.0975	1147.34
293.15 K, x1 = 0.1235	1163.35
293.15 K, x1 = 0.1451	1172.01
293.15 K, x1 = 0.1925	1185.47
293.15 K, x1 = 0.239	1194.83
293.15 K, x1 = 0.2888	1201.46
293.15 K, x1 = 0.3294	1205.08
293.15 K, x1 = 0.3767	1208.49
293.15 K, x1 = 0.4265	1211.93
293.15 K, x1 = 0.4713	1213.9
293.15 K, x1 = 0.5112	1215.18
293.15 K, x1 = 0.5427	1216.93
298.15 K, x1 = 0.039	1083.72
298.15 K, x1 = 0.0455	1093.38
298.15 K, x1 = 0.0497	1099.3
298.15 K, x1 = 0.0683	1120.71
298.15 K, x1 = 0.0783	1130.35
298.15 K, x1 = 0.0894	1138.78
298.15 K, x1 = 0.0975	1144.3
298.15 K, x1 = 0.1235	1160.15
298.15 K, x1 = 0.1451	1168.85
298.15 K, x1 = 0.1925	1182.21
298.15 K, x1 = 0.239	1191.61
298.15 K, x1 = 0.2888	1197.83
298.15 K, x1 = 0.3294	1201.85
298.15 K, x1 = 0.3767	1205.25
298.15 K, x1 = 0.4265	1209.67
298.15 K, x1 = 0.4713	1210.64
298.15 K, x1 = 0.5112	1211.78
298.15 K, x1 = 0.5427	1213.92
303.15 K, x1 = 0.039	1081.22
303.15 K, x1 = 0.0455	1090.77
303.15 K, x1 = 0.0497	1096.64
303.15 K, x1 = 0.0683	1117.81
303.15 K, x1 = 0.0783	1127.36
303.15 K, x1 = 0.0894	1135.72
303.15 K, x1 = 0.0975	1141.18
303.15 K, x1 = 0.1235	1156.96
303.15 K, x1 = 0.1451	1165.64
303.15 K, x1 = 0.1925	1178.9
303.15 K, x1 = 0.239	1188.36
303.15 K, x1 = 0.2888	1194.59
303.15 K, x1 = 0.3294	1198.55
303.15 K, x1 = 0.3767	1201.91
303.15 K, x1 = 0.4265	1206.45
303.15 K, x1 = 0.4713	1207.32
303.15 K, x1 = 0.5112	1208.42
303.15 K, x1 = 0.5427	1210.64
308.15 K, x1 = 0.039	1078.64
308.15 K, x1 = 0.0455	1088.06
308.15 K, x1 = 0.0497	1093.89
308.15 K, x1 = 0.0683	1114.86
308.15 K, x1 = 0.0783	1124.33
308.15 K, x1 = 0.0894	1132.63
308.15 K, x1 = 0.0975	1138.07
308.15 K, x1 = 0.1235	1153.81
308.15 K, x1 = 0.1451	1162.49
308.15 K, x1 = 0.1925	1175.73
308.15 K, x1 = 0.239	1185.05
308.15 K, x1 = 0.2888	1191.36
308.15 K, x1 = 0.3294	1195.3
308.15 K, x1 = 0.3767	1198.71
308.15 K, x1 = 0.4265	1203.15
308.15 K, x1 = 0.4713	1203.95
308.15 K, x1 = 0.5112	1205.15
308.15 K, x1 = 0.5427	1207.34
313.15 K, x1 = 0.039	1075.97
313.15 K, x1 = 0.0455	1085.27
313.15 K, x1 = 0.0497	1091.07
313.15 K, x1 = 0.0683	1111.85
313.15 K, x1 = 0.0783	1121.25
313.15 K, x1 = 0.0894	1129.5
313.15 K, x1 = 0.0975	1134.91
313.15 K, x1 = 0.1235	1150.57
313.15 K, x1 = 0.1451	1159.24
313.15 K, x1 = 0.1925	1172.52
313.15 K, x1 = 0.239	1181.78
313.15 K, x1 = 0.2888	1188.1
313.15 K, x1 = 0.3294	1192.09
313.15 K, x1 = 0.3767	1195.42
313.15 K, x1 = 0.4265	1199.74
313.15 K, x1 = 0.4713	1200.57
313.15 K, x1 = 0.5112	1201.78
313.15 K, x1 = 0.5427	1203.93
318.15 K, x1 = 0.039	1073.22
318.15 K, x1 = 0.0455	1082.41
318.15 K, x1 = 0.0497	1088.19
318.15 K, x1 = 0.0683	1108.8
318.15 K, x1 = 0.0783	1118.14
318.15 K, x1 = 0.0894	1126.34
318.15 K, x1 = 0.0975	1131.71
318.15 K, x1 = 0.1235	1147.32
318.15 K, x1 = 0.1451	1155.99
318.15 K, x1 = 0.1925	1169.27
318.15 K, x1 = 0.239	1178.48
318.15 K, x1 = 0.2888	1184.82
318.15 K, x1 = 0.3294	1188.84
318.15 K, x1 = 0.3767	1192.17
318.15 K, x1 = 0.4265	1196.17
318.15 K, x1 = 0.4713	1197.03
318.15 K, x1 = 0.5112	1198.21
318.15 K, x1 = 0.5427	1200.61
323.15 K, x1 = 0.039	1070.37
323.15 K, x1 = 0.0455	1079.46
323.15 K, x1 = 0.0497	1085.24
323.15 K, x1 = 0.0683	1105.7
323.15 K, x1 = 0.0783	1114.98
323.15 K, x1 = 0.0894	1123.14
323.15 K, x1 = 0.0975	1128.49
323.15 K, x1 = 0.1235	1144.03
323.15 K, x1 = 0.1451	1152.7
323.15 K, x1 = 0.1925	1166
323.15 K, x1 = 0.239	1175.27
323.15 K, x1 = 0.2888	1181.51
323.15 K, x1 = 0.3294	1185.58
323.15 K, x1 = 0.3767	1188.94
323.15 K, x1 = 0.4265	1192.88
323.15 K, x1 = 0.4713	1193.63
323.15 K, x1 = 0.5112	1194.79
323.15 K, x1 = 0.5427	1197.22
328.15 K, x1 = 0.039	1067.43
328.15 K, x1 = 0.0455	1076.44
328.15 K, x1 = 0.0497	1082.22
328.15 K, x1 = 0.0683	1102.55
328.15 K, x1 = 0.0783	1111.78
328.15 K, x1 = 0.0894	1119.9
328.15 K, x1 = 0.0975	1125.24
328.15 K, x1 = 0.1235	1140.73
328.15 K, x1 = 0.1451	1149.4
328.15 K, x1 = 0.1925	1162.68
328.15 K, x1 = 0.239	1172
328.15 K, x1 = 0.2888	1178.21
328.15 K, x1 = 0.3294	1182.29
328.15 K, x1 = 0.3767	1185.67
328.15 K, x1 = 0.4265	1189.64
328.15 K, x1 = 0.4713	1190.41
328.15 K, x1 = 0.5112	1191.55
328.15 K, x1 = 0.5427	1193.66
333.15 K, x1 = 0.039	1064.43
333.15 K, x1 = 0.0455	1073.32
333.15 K, x1 = 0.0497	1079.13
333.15 K, x1 = 0.0683	1099.36
333.15 K, x1 = 0.0783	1108.54
333.15 K, x1 = 0.0894	1116.63
333.15 K, x1 = 0.0975	1121.94
333.15 K, x1 = 0.1235	1137.4
333.15 K, x1 = 0.1451	1146.06
333.15 K, x1 = 0.1925	1159.35
333.15 K, x1 = 0.239	1168.59
333.15 K, x1 = 0.2888	1174.99
333.15 K, x1 = 0.3294	1178.98
333.15 K, x1 = 0.3767	1182.34
333.15 K, x1 = 0.4265	1186.35
333.15 K, x1 = 0.4713	1187.18
333.15 K, x1 = 0.5112	1188.22
333.15 K, x1 = 0.5427	1190.35
338.15 K, x1 = 0.039	1061.36
338.15 K, x1 = 0.0455	1070.11
338.15 K, x1 = 0.0497	1075.98
338.15 K, x1 = 0.0683	1096.1
338.15 K, x1 = 0.0783	1105.26
338.15 K, x1 = 0.0894	1113.31
338.15 K, x1 = 0.0975	1118.6
338.15 K, x1 = 0.1235	1134.05
338.15 K, x1 = 0.1451	1142.71
338.15 K, x1 = 0.1925	1155.98
338.15 K, x1 = 0.239	1165.3
338.15 K, x1 = 0.2888	1171.72
338.15 K, x1 = 0.3294	1175.77
338.15 K, x1 = 0.3767	1179.04
338.15 K, x1 = 0.4265	1183.09
338.15 K, x1 = 0.4713	1183.94
338.15 K, x1 = 0.5112	1184.93
338.15 K, x1 = 0.5427	1187.07
